From article PMC10859675, “Short‐chain mono‐carboxylates as negative modulators of allosteric transitions in Gloeobacter violaceus ligand‐gated ion channel, and impact of a pre‐β5 strand (Loop Ω) double mutation on crotonate, not butyrate effect” (Physiological Reports, 2024)
“And” between values parts separate entries of the source, which are not always exact repeats. Identical values can stand only once. Like-named read-outs stand apart in the source and are kept apart here.

Tests used:
[1] = target: T1, WT GLIC (Gloeobacter violaceus, UniProt Q7NDN8); assay: Whole-cell patch-clamp, direct protocol (pHo jump and compound applied simultaneously), WT GLIC in tk-ts13 cells; format: cell-based; details: 1 mM at pHo 5.0, direct protocol, individual cells; for ratio of peak current values in the presence and in the absence of compound (Ipk[CBX@5.0]/Ipk[pHo 5.0]): first CBX application; for current decay (h) time constant: m^4 h fit
T1 construct: expressed in transfected cells; host or cells: tk-ts13 cells, GLIC DNA in pMT3 vector
T1 sequence (Q7NDN8 44-359): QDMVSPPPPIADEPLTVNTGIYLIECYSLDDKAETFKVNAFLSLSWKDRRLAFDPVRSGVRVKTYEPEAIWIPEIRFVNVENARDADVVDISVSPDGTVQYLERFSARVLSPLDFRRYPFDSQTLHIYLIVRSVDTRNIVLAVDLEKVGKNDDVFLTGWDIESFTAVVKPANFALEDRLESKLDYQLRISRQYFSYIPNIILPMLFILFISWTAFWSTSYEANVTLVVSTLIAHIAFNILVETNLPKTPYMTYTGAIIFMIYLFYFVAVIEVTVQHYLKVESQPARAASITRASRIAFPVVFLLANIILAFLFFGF
Text: A direct protocol, where a pHo‐jump (from control pHo 7.5) and compound addition are applied simultaneously, was first used to examine the influence of saturated, short‐chain mono‐CBX compounds on low pHo‐induced GLIC current (Figure 1a).

[2] = target: T1, WT GLIC; assay: Whole-cell patch-clamp, protocol with pre-stimulation at low pHo, WT GLIC expressed in tk-ts13 cells; format: cell-based; details: for activity on GLIC current (NAM effect): 1 mM with pre-stimulation, pHo 5.0; for reversibility of negative modulation (slow components): after compound wash-out; for current in the presence of di-CBX, % of control: 10 mM at pHo 5.0, mean; for current in the presence of mono-CBX, % of control: 1 mM at pHo 5.0, WT sample of Figure 7, mean; for current in the presence of mono-CBX, % of control (100*I CBX/I CONTROL): 1 mM at pHo 5.0, WT sample of Figures 4 and 5, mean
Method: We give here the main points and some differences.
All solutions were prepared from the acid forms of the buffers/acido‐basic compounds (BAPTA, HEPES, MES, CBX, etc.). Stock 100 mmol/L (mM) mono‐CBX water solutions were prepared directly at pH 5 (NaOH/HCl), aliquoted and kept at −20°C.
Fit of concentration‐effect curves. For proton activation curves, the peak value (Ipk[pHo]; inward current value at maximal absolute value) within 30 s was considered (y), and a plot against H^+ activity value (x) was fitted with a 3‐parameter Hill equation: y=ymax*1/1+EC50nH/x^nH , giving I max, EC50, and pH50 = −log(EC50). For potentiation/inhibition, data for [percent of control current] in the presence of the compound (y = 100*I CBX/I CONTROL) to [compound concentration value] […] For most compounds are presented: a fit of the mean of data (Graphs), and the mean ± standard deviation (SD) of data from individual cells (values in text).

[3] = target: T2, GLIC R133A (Gloeobacter violaceus, UniProt Q7NDN8, R175A); assay: Whole-cell patch-clamp, direct protocol, GLIC R133A
T2 sequence (Q7NDN8 44-359 R175A): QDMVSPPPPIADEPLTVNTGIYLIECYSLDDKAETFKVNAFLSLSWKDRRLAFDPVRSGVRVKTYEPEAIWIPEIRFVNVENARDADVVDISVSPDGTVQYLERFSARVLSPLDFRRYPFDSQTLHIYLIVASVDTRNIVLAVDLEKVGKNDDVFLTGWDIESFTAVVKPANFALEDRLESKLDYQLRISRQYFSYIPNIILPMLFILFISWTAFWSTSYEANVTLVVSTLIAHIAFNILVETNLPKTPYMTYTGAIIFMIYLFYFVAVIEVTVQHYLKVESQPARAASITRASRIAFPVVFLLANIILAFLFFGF

[4] = target: T3, GLIC E181A (Gloeobacter violaceus, UniProt Q7NDN8, E223A); format: cell-based; details: 1 mM at pHo 5.0, versus WT GLIC
T3 construct: expressed in transfected cells; host or cells: tk-ts13 cells, pMT3 vector
T3 sequence (Q7NDN8 44-359 E223A): as the sequence (Q7NDN8 44-359 R175A) above, with A132R, E180A counted along it
Method: (§1) ACET (Figure 4) and the 4‐carbon compounds BUTYR and CROTON (Figure 5) were tested on the CBX‐pockets single mutants, at 1 mM with pre‐stimulation at pHo 5.0.

[5] = system: GLIC [AA + CBX‐pocket] triple mutants; assay: Whole-cell patch-clamp with pre-stimulation, [AA + CBX-pocket] triple mutants; details: 1 mM at pHo 5.0, compared to AA double mutant
Method: (§3) Nuclear injection of DNA was done on the day of reception of oocytes. […] Transfection was done within 24 h after cell seeding, using the DNA‐calcium phosphate co‐precipitation method. GFP‐positive cells were used for electrophysiology 1–2 days after transfection (tk‐ts13 cells), or 1–3 days after nuclear injection (oocytes). A mixture of DNAs coding for GLIC and GFP in separate pMT3 vectors was used, with amounts of [2 + 0.2] μg per 35 mm dish for transfections, or [0.04 + 0.02] g/L in water for injections.
(§4) The intracellular pipette solution was composed of (in mM): CsCl 150, MgCl2 1, HEPES 10, BAPTA 10, CsOH to pH 7.3. […] Lower pH values were reached by adding to this solution HCl 2 M in water (and more pH 7.5 solution to return pH up if necessary). […] A 3 M KCl, 5 g/L agar bridge was used to connect the reference electrode to the dish solution. […] Electric current flowing through the membrane from extracellular to intracellular face (inward current) is counted negative, and represented downwards in the figures. […]
(§5) Positive/negative modulation was evaluated as current in the presence of the compound, in percent of the control GLIC current value measured immediately before compound application (with a correction for GLIC current decay only for small inhibitions). […]

[6] = target: GLIC AA‐N152A (Gloeobacter violaceus, UniProt Q7NDN8, D128A/D130A/N194A); assay: Whole-cell patch-clamp with pre-stimulation, GLIC AA-N152A; details: CROTON 1 mM at pHo 5.0, single exponential fit
Chain of GLIC AA‐N152A (Q7NDN8 44-359 D128A/D130A/N194A): as the sequence (Q7NDN8 44-359 R175A) above, with D85A, D87A, A132R, N151A counted along it
Method: as §3, §4, §5

[7] = target: T2, GLIC R133A; format: cell-based; set-up: expressed in transfected cells; host or cells: tk-ts13 cells, pMT3 vector; details: 1 mM at pHo 5.0, mean
Method: as §1

[8] = target: T4, GLIC N152A (Gloeobacter violaceus, UniProt Q7NDN8, N194A); format: cell-based; details: 1 mM at pHo 5.0, mean
T4 construct: expressed in transfected cells; host or cells: tk-ts13 cells, pMT3 vector
T4 sequence (Q7NDN8 44-359 N194A): as the sequence (Q7NDN8 44-359 R175A) above, with A132R, N151A counted along it
Text: (§2) Compound modulation of the D86A‐D88A pre‐β5 variant (AA), N152A mutant and WT GLIC, was investigated in the protocol with pre‐stimulation at pHo 5.0 (Figure 7).

[9] = target: T5, GLIC D86A‐D88A (Gloeobacter violaceus, UniProt Q7NDN8, D128A/D130A); format: cell-based; details: 1 mM at pHo 5.0, Figure 7 sample, mean
T5 construct: expressed in transfected cells; host or cells: tk-ts13 cells, pMT3 vector
T5 sequence (Q7NDN8 44-359 D128A/D130A): as the sequence (Q7NDN8 44-359 R175A) above, with D85A, D87A, A132R counted along it
Text: as §2

[10] = target: T6, GLIC E104Q (Gloeobacter violaceus, UniProt Q7NDN8, E146Q); format: cell-based; details: 1 mM at pHo 5.0, mean
T6 construct: expressed in transfected cells; host or cells: tk-ts13 cells, pMT3 vector
T6 sequence (Q7NDN8 44-359 E146Q): as the sequence (Q7NDN8 44-359 R175A) above, with E103Q, A132R counted along it
Method: as §1

[11] = target: T7, GLIC E177A (Gloeobacter violaceus, UniProt Q7NDN8, E219A); format: cell-based; details: 1 mM at pHo 5.0, mean
T7 construct: expressed in transfected cells; host or cells: tk-ts13 cells, pMT3 vector
T7 sequence (Q7NDN8 44-359 E219A): as the sequence (Q7NDN8 44-359 R175A) above, with A132R, E176A counted along it
Method: as §1

[12] = target: T8, GLIC R77A (Gloeobacter violaceus, UniProt Q7NDN8, R119A); format: cell-based; details: 1 mM at pHo 5.0, mean
T8 construct: expressed in transfected cells; host or cells: tk-ts13 cells, pMT3 vector
T8 sequence (Q7NDN8 44-359 R119A): as the sequence (Q7NDN8 44-359 R175A) above, with R76A, A132R counted along it
Method: as §1

[13] = target: T9, GLIC Y102A (Gloeobacter violaceus, UniProt Q7NDN8, Y144A); format: cell-based; details: 1 mM at pHo 5.0, mean
T9 construct: expressed in transfected cells; host or cells: tk-ts13 cells, pMT3 vector
T9 sequence (Q7NDN8 44-359 Y144A): as the sequence (Q7NDN8 44-359 R175A) above, with Y101A, A132R counted along it
Method: as §1

[14] = target: T10, GLIC R105A (Gloeobacter violaceus, UniProt Q7NDN8, R147A); format: cell-based; details: 1 mM at pHo 5.0, mean
T10 construct: expressed in transfected cells; host or cells: tk-ts13 cells, pMT3 vector
T10 sequence (Q7NDN8 44-359 R147A): as the sequence (Q7NDN8 44-359 R175A) above, with R104A, A132R counted along it
Method: as §1

[15] = pHo 5.5, mean ± SD, read-out: IC50 (from individual cells)
[16] = 5 or 10 mM, pre-stimulation at pHo 5.0, 2–5 cells each
[17] = SUCCIN 10 mM at pHo 5.0, without ACET, after ACET 1 mM 50 s, one cell
[18] = pHo 5.0, mean ± SD, read-out: IC50 (from individual cells)

Molecule: CCC(=O)O [PROPION, Propanoic acid]
- ratio of peak current values in the presence and in the absence of compound (Ipk[CBX@5.0]/Ipk[pHo 5.0]) [1]: 0.380
- current decay (h) time constant [1]: 1.47 s
- activity on GLIC current (NAM effect) [2]: active
- reversibility of negative modulation (slow components) [2]: 3 to 10 min
- slope parameter nH (from individual cells) ([2]; pHo 5.5, mean ± SD): 1.1
- IC50 [2, 15]: 204 µM

Molecule: O=C(O)/C=C/c1ccc(O)c(O)c1 [CAFFE, caffeic acid]
- current in the presence of CAFFE, % of control ([2]; 0.1 mM at pHo 5.0, mean): 17.4 % of control

Molecule: NCCCC(=O)O [GABA, γ‐amino butyrate]
- effect on GLIC current [2, 16]: no effect

Molecule: phosphate
- effect on GLIC activity ([2]; 1 and 10 mM at pH 5.0, extracellular solution without CaCl2, n = 4 cells): no effect

Molecule: CC(=O)C(=O)O [pyruvate]
- effect on GLIC current [2, 16]: no effect

Molecule: C[C@H](N)C(=O)O [(L)‐alanine]
- effect on GLIC current [2, 16]: no effect

Molecule: CCCCC(=O)O [VALER, Pentanoic acid]
- IC50 ([2]; IC50 (from individual cells), pHo 5.0, mean ± SD): 289 µM

Molecule: CC(O)C(=O)O (stereo not drawn) [DL‐lactate]
- effect on GLIC current [2, 16]: no effect

Molecule: O=C(O)CCC(=O)O [SUCCIN, Butanedioic acid]
- current in the presence of di-CBX, % of control [2]: 142 % of control
- GLIC current with SUCCIN after ACET plateau, % of control current recorded immediately before ACET [2, 17]: 143 % of control
- GLIC current with SUCCIN after ACET plateau, % of current recorded in the presence of ACET [2, 17]: 2170 % of ACET current
- peak SUCCIN current (co-application with ACET), % of control current recorded immediately before ACET ([2]; SUCCIN 10 mM co-applied with ACET 1 mM, pHo 5.0, after 90, 120, 180 s of ACET, individual cells): 132 % of control and 28 % of control and 44 % of control
- peak SUCCIN current (co-application with ACET), % of ACET current ([2]; SUCCIN 10 mM co-applied with ACET 1 mM, pHo 5.0, individual cells): 753 % of ACET current and 505 % of ACET current and 392 % of ACET current

Molecule: CCCC(=O)O [BUTYR, Butanoic acid]
- ratio of peak current values in the presence and in the absence of compound (Ipk[CBX@5.0]/Ipk[pHo 5.0]) [1]: 0.257 and 0.332
- current decay (h) time constant [1]: 0.541 s and 0.304 s
- peak current inhibition [3]: almost fully abolished
- current in the presence of mono-CBX, % of control [2]: 13.6 % of control
- current in the presence of mono-CBX, % of control (100*I CBX/I CONTROL) [2]: 10.3 % of control
- IC50 [2, 18]: 219 µM
- slope parameter nH (from individual cells) ([2]; pHo 5.5, mean ± SD): 1.5
- IC50 [2, 15]: 150 µM
- impact of the E181A substitution on the NAM effect [4]: no impact

Molecule: NCCC(=O)O [β‐alanine]
- effect on GLIC current [2, 16]: no effect

Molecule: C/C=C/C(=O)O [CROTON, Butenoic acid]
- CROTON PAM effect after adding a binding pocket mutation to AA (excluding AA‐N152A) [5]: fully abolished
- ratio of peak current values in the presence and in the absence of compound (Ipk[CBX@5.0]/Ipk[pHo 5.0]) [1]: 0.228 and 0.244
- current decay (h) time constant [1]: 0.695 s and 0.583 s
- peak current inhibition [3]: almost fully abolished
- decay constant tau of PAM ratio versus control current amplitude [6]: 800 nA
- current in the presence of mono-CBX, % of control [2]: 13.6 % of control
- current in the presence of mono-CBX, % of control (100*I CBX/I CONTROL) [2]: 11.9 % of control
- IC50 [2, 18]: 191 µM
- impact of the E181A substitution on the NAM effect [4]: no impact

Molecule: O=C(O)/C=C/C(=O)O [FUMAR, (E)‐but‐2‐enedioic acid]
- current in the presence of di-CBX, % of control [2]: 194 % of control

Molecule: NCC(=O)O [glycine]
- effect on GLIC current [2, 16]: no effect

Molecule: O=C(O)CC(O)(CC(=O)O)C(=O)O [citrate]
- effect on GLIC current ([2]; citrate used as buffer, conditions not given): no effect

Molecule: CC(=O)O [ACET, Ethanoic acid]
- ratio of peak current values in the presence and in the absence of compound (Ipk[CBX@5.0]/Ipk[pHo 5.0]) [1]: 0.400 and 0.424 and 0.533 and 0.575
- current decay (h) time constant [1]: 2.90 s and 3.13 s and 3.33 s and 5.62 s
- current in the presence of mono-CBX, % of control [7]: 22.7 % of control
- current in the presence of mono-CBX, % of control [8]: 9.7 % of control
- current in the presence of mono-CBX, % of control [9]: 14.6 % of control
- current in the presence of mono-CBX, % of control [2]: 12.2 % of control
- current in the presence of mono-CBX, % of control (100*I CBX/I CONTROL) [2]: 12.2 % of control
- activity on GLIC current (NAM effect) [2]: active
- GLIC current in the presence of ACET, % of control ([2]; ACET 1 mM at pHo 5.0, 50-180 s application, individual cells): 17 % of control and 6.6 % of control and 5.5 % of control and 17.2 % of control and 11.3 % of control
- reversibility of negative modulation (slow components) [2]: 3 to 10 min
- slope parameter (fit of the mean value) ([2]; pHo 5.5, 10 cells): 1.6
- IC50 ([2]; pHo 5.5, 10 cells, read-out: IC50 (sigmoid fit of the mean value)): 136 µM
- IC50 [2, 15]: 128 µM
- current in the presence of mono-CBX, % of control [10]: 47.6 % of control
- current in the presence of mono-CBX, % of control [11]: 14.9 % of control
- current in the presence of mono-CBX, % of control [12]: 71.4 % of control
- current in the presence of mono-CBX, % of control [13]: 16.1 % of control
- current in the presence of mono-CBX, % of control [14]: 17.1 % of control
- impact of the E181A substitution on the NAM effect [4]: no impact
